± gives the expanded uncertainty stated by the source.
Assay: xn = mol fraction of the nth substance listed
Settings: 101 kPa, Liquid

CCC(C)(C)O [2-methylbutan-2-ol] + CCC(C)=O
Settings | mass density, 293.15 K [kg/m3] | mass density, 298.15 K [kg/m3] | mass density, 303.15 K [kg/m3] | mass density, 308.15 K [kg/m3] | mass density, 313.15 K [kg/m3] | viscosity, 293.15 K [mPa·s] | viscosity, 298.15 K [mPa·s] | viscosity, 303.15 K [mPa·s] | viscosity, 308.15 K [mPa·s] | viscosity, 313.15 K [mPa·s]
x2 = 0 | 809.61 ± 1.1 | 805.01 ± 1.1 | 800.41 ± 1.1 | 795.81 ± 1.1 | 791.21 ± 1.2 | 5.108 ± 0.88 | 4.474 ± 0.78 | 3.909 ± 0.69 | 3.387 ± 0.6 | 2.909 ± 0.52
x2 = 0.0803 | 809.22 ± 1.1 | 804.57 ± 1.1 | 799.94 ± 1.1 | 795.3 ± 1.1 | 790.63 ± 1.2 | 3.81 ± 0.67 | 3.35 ± 0.6 | 2.9 ± 0.52 | 2.521 ± 0.46 | 2.26 ± 0.41
x2 = 0.1583 | 808.84 ± 1.1 | 804.15 ± 1.1 | 799.49 ± 1.1 | 794.82 ± 1.1 | 790.09 ± 1.2 | 2.862 ± 0.51 | 2.521 ± 0.46 | 2.14 ± 0.39 | 1.905 ± 0.35 | 1.7 ± 0.32
x2 = 0.2341 | 808.48 ± 1.1 | 803.74 ± 1.1 | 799.06 ± 1.1 | 794.36 ± 1.2 | 789.57 ± 1.2 | 2.105 ± 0.39 | 1.85 ± 0.34 | 1.53 ± 0.29 | 1.421 ± 0.27 | 1.287 ± 0.25
x2 = 0.3077 | 808.13 ± 1.1 | 803.35 ± 1.1 | 798.85 ± 1.1 | 793.92 ± 1.2 | 789.06 ± 1.2 | 1.558 ± 0.29 | 1.37 ± 0.26 | 1.09 ± 0.21 | 1.103 ± 0.22 | 0.9819 ± 0.19
x2 = 0.3794 | 807.79 ± 1.1 | 802.97 ± 1.1 | 798.25 ± 1.1 | 793.49 ± 1.2 | 788.57 ± 1.2 | 1.15 ± 0.22 | 1.054 ± 0.21 | – | 0.84 ± 0.17 | 0.7418 ± 0.15
x2 = 0.449 | 807.47 ± 1.1 | 802.6 ± 1.1 | 797.86 ± 1.1 | 793.07 ± 1.2 | 788.09 ± 1.2 | 0.842 ± 0.17 | 0.8221 ± 0.17 | 0.6863 ± 0.14 | 0.7188 ± 0.15 | 0.5869 ± 0.13
x2 = 0.5168 | 807.16 ± 1.1 | 802.24 ± 1.1 | 797.48 ± 1.1 | 792.67 ± 1.2 | 787.63 ± 1.2 | 0.6725 ± 0.14 | 0.6579 ± 0.14 | 0.5601 ± 0.12 | 0.5865 ± 0.13 | 0.4801 ± 0.11
x2 = 0.5828 | 806.85 ± 1.1 | 801.89 ± 1.1 | 796.12 ± 1.1 | 792.27 ± 1.1 | 787.18 ± 1.2 | 0.5515 ± 0.12 | 0.5913 ± 0.13 | 0.5201 ± 0.11 | 0.5202 ± 0.11 | 0.4017 ± 0.094
x2 = 0.6471 | 806.56 ± 1.1 | 801.56 ± 1.1 | 796.77 ± 1.1 | 791.89 ± 1.2 | 786.74 ± 1.2 | 0.4986 ± 0.11 | 0.5219 ± 0.12 | 0.52 ± 0.11 | 0.4801 ± 0.11 | 0.3511 ± 0.086
x2 = 0.7097 | 806.27 ± 1.1 | 801.23 ± 1.1 | 796.43 ± 1.1 | 791.52 ± 1.2 | 786.32 ± 1.2 | 0.4935 ± 0.11 | 0.4894 ± 0.11 | 0.48 ± 0.11 | 0.4507 ± 0.1 | –
x2 = 0.7707 | 805.99 ± 1.1 | 800.91 ± 1.1 | 796.08 ± 1.1 | 791.15 ± 1.2 | 785.9 ± 1.2 | 0.4482 ± 0.1 | 0.4437 ± 0.1 | 0.4801 ± 0.11 | 0.4505 ± 0.1 | 0.323 ± 0.081
x2 = 0.8302 | 805.71 ± 1.1 | 800.6 ± 1.1 | 795.75 ± 1.1 | 790.79 ± 1.2 | 785.49 ± 1.2 | 0.4457 ± 0.1 | 0.4344 ± 0.1 | 0.4802 ± 0.11 | 0.4503 ± 0.1 | 0.3001 ± 0.077
x2 = 0.8882 | 805.45 ± 1.1 | 800.29 ± 1.1 | 795.42 ± 1.1 | 790.44 ± 1.2 | 785.09 ± 1.2 | 0.4464 ± 0.1 | 0.3813 ± 0.091 | 0.4402 ± 0.1 | 0.4012 ± 0.094 | 0.2999 ± 0.077
x2 = 0.9448 | 805.18 ± 1.1 | 799.99 ± 1.1 | 795.11 ± 1.1 | 790.1 ± 1.2 | 784.7 ± 1.2 | 0.4338 ± 0.1 | 0.3142 ± 0.079 | 0.3601 ± 0.087 | 0.32 ± 0.08 | 0.2997 ± 0.077

CCC(C)=O [butanone] + CC(C)CO
Settings | mass density, 293.15 K [kg/m3] | mass density, 298.15 K [kg/m3] | mass density, 303.15 K [kg/m3] | mass density, 308.15 K [kg/m3] | mass density, 313.15 K [kg/m3] | viscosity, 293.15 K [mPa·s] | viscosity, 298.15 K [mPa·s] | viscosity, 303.15 K [mPa·s] | viscosity, 308.15 K [mPa·s] | viscosity, 313.15 K [mPa·s]
x1 = 0.0684 | 801.9 ± 0.99 | 797.93 ± 1 | 794.21 ± 1.1 | 790.04 ± 1.1 | 786.54 ± 1.1 | 3.138 ± 0.56 | 2.611 ± 0.47 | 2.24 ± 0.41 | 1.913 ± 0.35 | 1.625 ± 0.3
x1 = 0.1365 | 802.11 ± 0.99 | 798.06 ± 1 | 794.25 ± 1.1 | 790.03 ± 1.1 | 786.39 ± 1.1 | 2.429 ± 0.44 | 2.054 ± 0.38 | 1.78 ± 0.33 | 1.534 ± 0.29 | 1.33 ± 0.25
x1 = 0.2044 | 802.32 ± 1 | 798.18 ± 1 | 794.29 ± 1.1 | 790 ± 1.1 | 786.22 ± 1.1 | 1.862 ± 0.34 | 1.566 ± 0.29 | 1.404 ± 0.27 | 1.193 ± 0.23 | 1.074 ± 0.21
x1 = 0.2721 | 802.52 ± 1 | 798.29 ± 1 | 794.32 ± 1.1 | 789.98 ± 1.1 | 786.06 ± 1.1 | 1.426 ± 0.27 | 1.206 ± 0.23 | 1.104 ± 0.22 | 0.9579 ± 0.19 | 0.8538 ± 0.17
x1 = 0.3395 | 802.72 ± 1 | 798.41 ± 1 | 794.36 ± 1.1 | 789.95 ± 1.1 | 785.89 ± 1.1 | 1.111 ± 0.22 | 0.9449 ± 0.19 | 0.8637 ± 0.17 | 0.7612 ± 0.16 | 0.6894 ± 0.14
x1 = 0.4066 | 802.92 ± 1 | 798.52 ± 1.1 | 794.39 ± 1.1 | 789.92 ± 1.1 | 785.73 ± 1.1 | 0.8561 ± 0.17 | 0.7513 ± 0.15 | 0.676 ± 0.14 | 0.6222 ± 0.13 | 0.5674 ± 0.12
x1 = 0.4735 | 803.13 ± 1 | 798.63 ± 1.1 | 794.42 ± 1.1 | 789.89 ± 1.1 | 785.56 ± 1.1 | 0.7002 ± 0.15 | 0.607 ± 0.13 | 0.5418 ± 0.12 | 0.5176 ± 0.11 | 0.46 ± 0.1
x1 = 0.5402 | 803.33 ± 1 | 798.75 ± 1.1 | 794.46 ± 1.1 | 789.87 ± 1.1 | 785.4 ± 1.2 | 0.6142 ± 0.13 | 0.5305 ± 0.12 | 0.4663 ± 0.11 | 0.4456 ± 0.1 | 0.3948 ± 0.093
x1 = 0.6066 | 803.54 ± 1.1 | 798.87 ± 1.1 | 794.49 ± 1.1 | 789.85 ± 1.1 | 785.23 ± 1.2 | 0.538 ± 0.12 | 0.4883 ± 0.11 | 0.4135 ± 0.096 | 0.4102 ± 0.096 | 0.34 ± 0.084
x1 = 0.6727 | 803.75 ± 1.1 | 798.99 ± 1.1 | 794.53 ± 1.1 | 789.83 ± 1.1 | 785.08 ± 1.2 | 0.5271 ± 0.12 | 0.4556 ± 0.1 | 0.3743 ± 0.09 | 0.3752 ± 0.09 | 0.3138 ± 0.079
x1 = 0.7387 | 803.97 ± 1.1 | 799.12 ± 1.1 | 794.58 ± 1.1 | 789.82 ± 1.2 | 784.92 ± 1.2 | 0.5071 ± 0.11 | 0.4444 ± 0.1 | 0.3713 ± 0.089 | 0.3573 ± 0.087 | 0.2909 ± 0.075
x1 = 0.8044 | 804.2 ± 1.1 | 799.25 ± 1.1 | 794.63 ± 1.1 | 789.81 ± 1.2 | 784.77 ± 1.2 | 0.5079 ± 0.11 | 0.4189 ± 0.097 | 0.3607 ± 0.087 | 0.3498 ± 0.085 | 0.2754 ± 0.072
x1 = 0.8698 | 804.43 ± 1.1 | 799.4 ± 1.1 | 794.68 ± 1.1 | 789.8 ± 1.2 | 784.62 ± 1.2 | 0.4996 ± 0.11 | 0.4217 ± 0.098 | 0.3443 ± 0.084 | 0.3334 ± 0.083 | 0.28 ± 0.073
x1 = 0.935 | 804.67 ± 1.1 | 799.54 ± 1.1 | 794.74 ± 1.1 | 789.79 ± 1.2 | 784.47 ± 1.2 | 0.4722 ± 0.11 | 0.3617 ± 0.087 | 0.3135 ± 0.079 | 0.3005 ± 0.077 | 0.2769 ± 0.073
x1 = 1 | 804.92 ± 1.1 | 799.7 ± 1.1 | 794.81 ± 1.1 | 789.78 ± 1.2 | 784.32 ± 1.2 | 0.3956 ± 0.093 | 0.2828 ± 0.074 | 0.2666 ± 0.071 | 0.2601 ± 0.07 | 0.2545 ± 0.069
